Legend:
[1] = system: barnyardgrass; experiment: Test B pre-/postemergence herbicide test; format: in vivo, Echinochloa crus-galli
Outline: (§1)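 Response was scored visually 13 to 15 days after treatment against untreated greenhouse controls, 0 meaning no effect and 100 complete control. Formulations (solvent mixture plus surfactant) went onto soil after planting, onto foliage of 1- to 4-leaf plants, and onto 2-leaf plants in a flooded paddy set including rice and barnyardgrass.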

[2] = system: Surinam grass; experiment: Test B pre-/postemergence herbicide test; format: in vivo, Urochloa decumbens
Outline: (§2)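 Greenhouse pot assay with simultaneous preemergence (treated seed) and postemergence (2–18 cm seedlings) applications of surfactant-containing, non-phytotoxic solvent formulations. Response scored visually 13–15 days later on a 0–100 scale, 100 meaning complete control.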

[3] = system: cocklebur; experiment: Test B pre-/postemergence herbicide test; format: in vivo, Xanthium strumarium
Outline: as §1

[4] = system: corn; experiment: Test B pre-/postemergence herbicide test; format: in vivo, Zea mays
Outline: as §2

[5] = system: large crabgrass; experiment: Test B pre-/postemergence herbicide test; format: in vivo, Digitaria sanguinalis
Outline: as §2

[6] = system: lambsquarters; experiment: Test B pre-/postemergence herbicide test; format: in vivo, Chenopodium album
Outline: as §2

[7] = system: morningglory; experiment: Test B pre-/postemergence herbicide test; format: in vivo, Ipomoea coccinea
Outline: as §1

[8] = system: pigweed; experiment: Test B pre-/postemergence herbicide test; format: in vivo, Amaranthus retroflexus
Outline: as §2

[9] = system: velvetleaf; experiment: Test B pre-/postemergence herbicide test; format: in vivo, Abutilon theophrasti
Outline: as §2

[10] = system: blackgrass; experiment: Test B postemergence herbicide test; format: in vivo, Alopecurus myosuroides
Outline: (§3)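 Visual control ratings, 0–100 versus untreated controls, taken after 13 to 15 days in the greenhouse. Blackgrass received a postemergence spray at the 1- to 4-leaf stage (2–18 cm); ducksalad, umbrella sedge and barnyardgrass were flooded-paddy treated at 2 leaves.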

[11] = system: wheat; experiment: Test B postemergence herbicide test; format: in vivo, Triticum aestivum; set-up: key to Wheat plant response rating: 0 = no effect, 100 = complete control
Outline: (§4)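 Plants grow to 1- to 4-leaf stage (2–18 cm) for postemergence spraying, or to 2-leaf stage for the paddy test. Formulated compound is applied. Greenhouse holding lasts 13–15 days. Response is scored visually relative to controls, 0 no effect to 100 complete control; a dash means no result.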

[12] = system: wild oat; experiment: Test B postemergence herbicide test; format: in vivo, Avena fatua; conditions: scale 0 (no effect) to 100 (complete control)
Outline: as §4

[13] = system: rice; experiment: Test B flooded paddy test; format: in vivo, Oryza sativa; conditions: 1000 g ai/ha, scale 0 to 100 (0 no effect, 100 complete control)
Outline: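 Greenhouse test; postemergence application to plants at 1–4 leaves (2–18 cm); paddy species at 2 leaves; evaluated visually vs controls at 13–15 days; scale 0–100 (100 = complete control).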

[14] = system: small flower umbrella sedge; experiment: Test B flooded paddy test; format: in vivo, Cyperus difformis; conditions: 1000 g ai/ha, scale 0 to 100 (0 no effect, 100 complete control)
Outline: as §3

[15] = system: ducksalad; experiment: Test B flooded paddy test; format: in vivo, Heteranthera limosa; conditions: 1000 g ai/ha, scale 0 to 100 (0 no effect, 100 complete control)
Outline: as §3

[16] = system: barnyardgrass; experiment: Test B flooded paddy test; format: in vivo, Echinochloa crus-galli; conditions: 1000 g ai/ha, scale 0 to 100 (0 no effect, 100 complete control)
Outline: as §3

[17] = Postemergence, 500 g ai/ha, visual rating after 13 to 15 days, scale 0 (no effect) to 100 (complete control)
[18] = Preemergence, 500 g ai/ha, scale 0 to 100
[19] = postemergence, 125 g ai/ha, visual rating, scale 0 (no effect) to 100 (complete control)
[20] = preemergence, 125 g ai/ha, 0 to 100 scale, 0 is no effect, 100 is complete control
[21] = postemergence, 125 g ai/ha; visual rating, scale 0 (no effect) to 100 (complete control)
[22] = postemergence, 125 g ai/ha, visual rating
[23] = 125 g ai/ha, 0 is no effect, 100 is complete control, preemergence
[24] = 125 g ai/ha, visual rating, scale 0 (no effect) to 100 (complete control), postemergence
[25] = postemergence, 500 g ai/ha, scale 0 to 100, 0 is no effect, 100 is complete control
[26] = Postemergence, 500 g ai/ha, scale 0 (no effect) to 100 (complete control)
[27] = 500 g ai/ha, visual rating 0-100, 0 no effect, 100 complete control, preemergence
[28] = postemergence, 500 g ai/ha, visual rating, scale 0 (no effect) to 100 (complete control)
[29] = postemergence, 500 g ai/ha; visual rating, scale 0 (no effect) to 100 (complete control)
[30] = postemergence, 500 g ai/ha, visual rating

C#CCn1nc(C(C)(C)C)cc1C(=O)Nc1cccc(C(=O)NCC)c1 [Compound 50]
Plant response rating, Barnyardgrass [1, 17]: 70
Barnyardgrass plant response rating [1, 18]: 80
Barnyardgrass plant response rating [1, 19]: 50
Plant response rating, Barnyardgrass [1, 20]: 40
Plant response rating, Surinam Grass [2, 17]: 40
Surinam Grass plant response rating [2, 18]: 50
Surinam Grass plant response rating [2, 19]: 30
Plant response rating, Surinam Grass [2, 20]: 20
Plant response rating, Cocklebur [3, 17]: 90
Cocklebur plant response rating [3, 18]: 0
Cocklebur plant response rating [3, 19]: 90
Plant response rating, Cocklebur [3, 20]: 0
Plant response rating, Corn [4, 17]: 40
Corn plant response rating [4, 18]: 10
Corn plant response rating [4, 19]: 30
Plant response rating, Corn [4, 20]: 0
Plant response rating, Crabgrass, Large [5, 17]: 30
Crabgrass, Large plant response rating [5, 18]: 90
Crabgrass, Large plant response rating [5, 19]: 10
Plant response rating, Crabgrass, Large [5, 20]: 30
Plant response rating, Lambsquarters [6, 17]: 90
Lambsquarters plant response rating [6, 18]: 100
Lambsquarters plant response rating [6, 19]: 80
Plant response rating, Lambsquarters [6, 20]: 90
Plant response rating, Morningglory [7, 17]: 70
Morningglory plant response rating [7, 18]: 40
Morningglory plant response rating [7, 19]: 70
Plant response rating, Morningglory [7, 20]: 10
Plant response rating, Pigweed [8, 17]: 100
Pigweed plant response rating [8, 18]: 100
Pigweed plant response rating [8, 19]: 80
Plant response rating, Pigweed [8, 20]: 100
Plant response rating, Velvetleaf [9, 17]: 60
Velvetleaf plant response rating [9, 18]: 50
Velvetleaf plant response rating [9, 19]: 40
Plant response rating, Velvetleaf [9, 20]: 20
Plant response rating, Blackgrass ([10]; Postemergence, 500 g ai/ha; visual rating after 13 to 15 days, scale 0 (no effect) to 100 (complete control)): 30
Blackgrass plant response rating [10, 21]: 20
Plant response rating, Wheat [11, 17]: 30
Wheat plant response rating [11, 19]: 30
Plant response rating, Oat, Wild ([12]; Postemergence, 500 g ai/ha, visual rating after 13 to 15 days): 20
Oat, Wild plant response rating [12, 22]: 20
Rice plant response rating ([13]; visual rating, 13 to 15 days): 60
Sedge, Umbrella plant response rating ([14]; visual rating, 13 to 15 days): 80
Ducksalad plant response rating ([15]; visual rating, 13 to 15 days): 70
Barnyardgrass plant response rating ([16]; visual rating, 13 to 15 days): 70

CCOC(=O)c1cccc(NC(=O)c2nn(C(C)(C)CC)nc2CC)c1 [Compound 375]
Plant response rating (0 to 100 scale), Barnyardgrass [1, 23]: 20
Barnyardgrass plant response rating [1, 24]: 30
Barnyardgrass plant response rating [1, 25]: 70
Plant response rating (0 to 100 scale), Surinam Grass [2, 23]: 40
Surinam Grass plant response rating [2, 24]: 20
Surinam Grass plant response rating [2, 26]: 30
Plant response rating (0 to 100 scale), Cocklebur [3, 23]: 0
Cocklebur plant response rating [3, 24]: 30
Cocklebur plant response rating [3, 25]: 60
Plant response rating (0 to 100 scale), Corn [4, 23]: 0
Corn plant response rating [4, 24]: 20
Corn plant response rating [4, 25]: 40
Plant response rating (0 to 100 scale), Crabgrass, Large [5, 23]: 20
Crabgrass, Large plant response rating [5, 24]: 20
Crabgrass, Large plant response rating [5, 25]: 40
Plant response rating (0 to 100 scale), Lambsquarters [6, 23]: 50
Lambsquarters plant response rating [6, 24]: 20
Lambsquarters plant response rating [6, 26]: 40
Plant response rating (0 to 100 scale), Morningglory [7, 23]: 10
Morningglory plant response rating [7, 24]: 20
Morningglory plant response rating [7, 26]: 40
Plant response rating (0 to 100 scale), Pigweed [8, 23]: 70
Pigweed plant response rating [8, 24]: 40
Pigweed plant response rating [8, 26]: 80
Plant response rating (0 to 100 scale), Velvetleaf [9, 23]: 30
Velvetleaf plant response rating [9, 24]: 70
Velvetleaf plant response rating [9, 26]: 90
Blackgrass plant response rating ([10]; 125 g ai/ha; visual rating, scale 0 (no effect) to 100 (complete control); postemergence): 30
Blackgrass plant response rating ([10]; postemergence, 500 g ai/ha; scale 0 to 100, 0 is no effect, 100 is complete control): 40
Wheat plant response rating [11, 24]: 30
Wheat plant response rating ([11]; 500 g ai/ha, scale 0 to 100, 0 no effect, 100 complete control, preemergence): 30
Wheat plant response rating [11, 26]: 40
Oat, Wild plant response rating ([12]; 125 g ai/ha, visual rating, postemergence): 40
Oat, Wild plant response rating ([12]; Postemergence, 500 g ai/ha): 50
Rice plant response rating [13]: 40
Sedge, Umbrella plant response rating [14]: 80
Ducksalad plant response rating [15]: 20
Barnyardgrass plant response rating [16]: 40

CCn1nc(C(C)(C)C)cc1C(=O)Nc1cccc(C(N)=O)n1 [Compound 162, 6-[[[3-(1,1-dimethylethyl)-1-ethyl-1H-pyrazol-5-yl]carbonyl]amino]-2-pyridinecarboxamide]
Plant response rating, Barnyardgrass [1, 27]: 100
Barnyardgrass plant response rating [1, 19]: 0
Barnyardgrass plant response rating [1, 28]: 30
Plant response rating, Barnyardgrass [1, 20]: 100
Plant response rating, Surinam Grass [2, 27]: 100
Surinam Grass plant response rating [2, 19]: 0
Surinam Grass plant response rating [2, 28]: 40
Plant response rating, Surinam Grass [2, 20]: 90
Plant response rating, Cocklebur [3, 27]: 90
Cocklebur plant response rating [3, 19]: 10
Cocklebur plant response rating [3, 28]: 60
Plant response rating, Cocklebur [3, 20]: 30
Plant response rating, Corn [4, 27]: 80
Corn plant response rating [4, 19]: 0
Corn plant response rating [4, 28]: 0
Plant response rating, Corn [4, 20]: 30
Plant response rating, Crabgrass, Large [5, 27]: 100
Crabgrass, Large plant response rating [5, 19]: 20
Crabgrass, Large plant response rating [5, 28]: 40
Plant response rating, Crabgrass, Large [5, 20]: 100
Plant response rating, Lambsquarters [6, 27]: 100
Lambsquarters plant response rating [6, 19]: 80
Lambsquarters plant response rating [6, 28]: 90
Plant response rating, Lambsquarters [6, 20]: 100
Plant response rating, Morningglory [7, 27]: 80
Morningglory plant response rating [7, 19]: 0
Morningglory plant response rating [7, 28]: 60
Plant response rating, Morningglory [7, 20]: 20
Plant response rating, Pigweed [8, 27]: 100
Pigweed plant response rating [8, 19]: 40
Pigweed plant response rating [8, 28]: 80
Plant response rating, Pigweed [8, 20]: 100
Plant response rating, Velvetleaf [9, 27]: 100
Velvetleaf plant response rating [9, 19]: 60
Velvetleaf plant response rating [9, 28]: 80
Plant response rating, Velvetleaf [9, 20]: 90
Blackgrass plant response rating [10, 21]: 20
Blackgrass plant response rating [10, 29]: 50
Wheat plant response rating [11, 28]: 10
Oat, Wild plant response rating [12, 22]: 20
Oat, Wild plant response rating [12, 30]: 40
Rice plant response rating ([13]; visual rating, 13 to 15 days): 80
Sedge, Umbrella plant response rating ([14]; visual rating, 13 to 15 days): 80
Ducksalad plant response rating ([15]; visual rating, 13 to 15 days): 80
Barnyardgrass plant response rating ([16]; visual rating, 13 to 15 days): 80

C=Cn1nc(C(C)(C)C)cc1C(=O)Nc1cccc(C(C)=O)c1 [Compound 127]
Plant response rating, Barnyardgrass [1, 27]: 70
Barnyardgrass plant response rating [1, 19]: 10
Barnyardgrass plant response rating [1, 28]: 20
Plant response rating, Barnyardgrass [1, 20]: 20
Plant response rating, Surinam Grass [2, 27]: 60
Surinam Grass plant response rating [2, 19]: 10
Surinam Grass plant response rating [2, 28]: 10
Plant response rating, Surinam Grass [2, 20]: 50
Plant response rating, Cocklebur [3, 27]: 20
Cocklebur plant response rating [3, 19]: 10
Cocklebur plant response rating [3, 28]: 80
Plant response rating, Cocklebur [3, 20]: 10
Plant response rating, Corn [4, 27]: 0
Plant response rating, Corn [4, 20]: 0
Plant response rating, Crabgrass, Large [5, 27]: 100
Crabgrass, Large plant response rating [5, 19]: 20
Crabgrass, Large plant response rating [5, 28]: 30
Plant response rating, Crabgrass, Large [5, 20]: 90
Plant response rating, Lambsquarters [6, 27]: 70
Lambsquarters plant response rating [6, 19]: 70
Lambsquarters plant response rating [6, 28]: 80
Plant response rating, Lambsquarters [6, 20]: 0
Plant response rating, Morningglory [7, 20]: 0
Plant response rating, Pigweed [8, 27]: 70
Pigweed plant response rating [8, 19]: 30
Pigweed plant response rating [8, 28]: 60
Plant response rating, Pigweed [8, 20]: 40
Plant response rating, Velvetleaf [9, 27]: 20
Velvetleaf plant response rating [9, 19]: 0
Velvetleaf plant response rating [9, 28]: 10
Plant response rating, Velvetleaf [9, 20]: 10
Blackgrass plant response rating [10, 21]: 10
Blackgrass plant response rating [10, 29]: 10
Wheat plant response rating [11, 19]: 0
Wheat plant response rating [11, 28]: 10
Oat, Wild plant response rating [12, 22]: 10
Oat, Wild plant response rating [12, 30]: 10
Rice plant response rating ([13]; visual rating, 13 to 15 days): 50
Sedge, Umbrella plant response rating ([14]; visual rating, 13 to 15 days): 100
Ducksalad plant response rating ([15]; visual rating, 13 to 15 days): 90
Barnyardgrass plant response rating ([16]; visual rating, 13 to 15 days): 50

Reference: patent publication US20060069132A1, “Azolecarboxamide herbicides” (priority 2004, published 2006)
